In article PMC12555108, “In‐vitro Assessment of BCRP‐Mediated Efflux of Antiseizure Medications in Human Blood‐Brain Barrier Cell Model” (Journal of Biochemical and Molecular Toxicology, 2025):
Blank lines part the entries; values can stand above or below the molecule they belong to.

Experiments:
[1] = set-up: method as in Johannessen, 2004; Patsalos, 2008; Lee, 2016; details: patients with epilepsy; ref Johannessen, 2004; Patsalos, 2008; Lee, 2016; cited from earlier work
[2] = target: T1, BCRP (Homo sapiens, UniProt Q9UNQ0); experiment: competitive substrate efflux assay (BODIPY-prazosin accumulation) in hCMEC/D3 cells; assay type: cell-based
T1 sequence (Q9UNQ0 1-655): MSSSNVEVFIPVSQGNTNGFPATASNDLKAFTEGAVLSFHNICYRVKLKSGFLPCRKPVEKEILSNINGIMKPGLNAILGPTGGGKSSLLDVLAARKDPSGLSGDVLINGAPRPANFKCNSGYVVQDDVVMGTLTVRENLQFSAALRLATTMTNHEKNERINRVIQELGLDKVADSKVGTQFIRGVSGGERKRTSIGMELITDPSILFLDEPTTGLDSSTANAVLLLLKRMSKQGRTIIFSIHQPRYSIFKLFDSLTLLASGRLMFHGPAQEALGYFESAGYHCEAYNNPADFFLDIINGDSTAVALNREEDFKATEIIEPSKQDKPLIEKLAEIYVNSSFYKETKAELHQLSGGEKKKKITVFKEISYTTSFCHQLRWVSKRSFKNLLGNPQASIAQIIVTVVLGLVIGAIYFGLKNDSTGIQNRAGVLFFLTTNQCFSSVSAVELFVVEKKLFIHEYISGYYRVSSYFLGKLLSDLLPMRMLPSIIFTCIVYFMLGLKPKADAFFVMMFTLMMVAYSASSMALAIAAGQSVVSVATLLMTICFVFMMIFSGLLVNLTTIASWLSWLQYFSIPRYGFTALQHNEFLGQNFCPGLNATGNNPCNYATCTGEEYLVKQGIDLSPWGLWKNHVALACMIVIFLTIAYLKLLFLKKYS
Method: The potential of ASMs to compete with a known fluorescent substrate of BCRP, BPZ in hCMEC/D3 cells was examined using a competitive substrate efflux assay that has previously been used in various studies. The interaction of CBZ, DCLB, OXC, TPM, and LEVI with BCRP was evaluated. Initially, hCMEC/D3 were seeded in 12‐well plates (cat. no. 150628, Nunc, Thermo Fisher Scientific, MA, USA) at 70‐80% confluency for 24 h. In this study, Ko143 was used for BCRP inhibition. The cultured cells were incubated at 37°C for half an hour in media containing BPZ with either the test ASMs or Ko143. Cells were washed with chilled 1X PBS three times and again incubated at 37°C for 1 h 30 min in BPZ‐free media with or without Ko143. Cells were washed three times with ice‐cold 1X PBS to terminate the assay. Cell lysis was performed by adding 1% triton X‐100, followed by incubating the cells for 15 min at 37°C. 20 µl of cell lysate was placed in 384‐well black assay plates for fluorescence detection (excitation at 488 nm; emission at 530 nm) to Infinite 200 PRO NanoQuant (Tecan, Zurich, Switzerland). The rest of the cell lysate was used for determining protein levels using the BCA protein estimation method to normalize the observed fluorescence intensity with total protein yield. The data were shown as a fold increment in intracellular fluorescence of BPZ relative to the control.

[3] = target: T1, BCRP; experiment: bidirectional transport assay across hCMEC/D3 cell monolayer with or without Ko143; details: for transport by BCRP (conclusion of bidirectional transport assay) / efflux ratio at 2 h / efflux ratio at 2 h, 15 µM / efflux ratio at 2 h, 60 µM / efflux ratio at 2 h, 21 μM / efflux ratio at 2 h, 42 μM: hCMEC/D3 monolayer; for transport by BCRP (conclusion of bidirectional transport assay): ER ≥ 1.5 and significantly reduced by Ko143; for Papp A→B at 2 h, 15 µM / Papp A→B at 2 h, 60 µM / Papp B→A at 2 h, 15 µM / Papp B→A at 2 h, 60 µM / efflux ratio at 2 h / efflux ratio at 2 h, 15 µM / efflux ratio at 2 h, 60 µM / Papp A→B at 2 h, 5 μM / Papp B→A at 2 h, 5 μM / Papp A→B at 2 h, 21 μM / Papp A→B at 2 h, 42 μM / Papp B→A at 2 h, 21 μM / Papp B→A at 2 h, 42 μM / efflux ratio at 2 h, 21 μM / efflux ratio at 2 h, 42 μM: human; for efflux ratio at 2 h: pH 7.4, Efflux ratio (ER) without inhibitor, at all the tested concentrations
Method: For transport assays, hCMEC/D3 cells were seeded on collagen type I‐coated Transwell inserts (polycarbonate 12‐well, pore size […]) (cat. no. CLS3460; Corning, NY, USA) at 80% confluency and cultured as described in section 2.5. In brief, the drug was dissolved in Hanks’ balanced salt solution supplemented with 10 mM HEPES, 1 mM Na‐Pyruvate, pH 7.4 at 37°C (transport buffer). Initially, both sides of the chamber were washed with 1X PBS and the assay was performed with pre‐warmed transport buffer. 0.5 ml or 1.5 ml of the drug solution, with or without BCRP‐specific inhibitor Ko143 (1 μM) was added to either the apical side or basolateral side of the monolayer, respectively, and fresh transport buffer was added to the opposite side. Aliquots of 100 μl samples were taken from the opposite sides every 30 min for 2 h, and the same amount of fresh transport buffer was added to the same chamber after each sampling. […] Concentrations of ASMs were evaluated by HPLC or LC/MS. Apparent permeability (Papp) is defined as the transport rate of ASM and efflux ratio (ER) was calculated as the ratio of Papp in the basolateral‐to‐apical (Papp(B→A)) direction to the Papp in the apical‐to‐basolateral (Papp(A→B)) direction. The samples were stored at −20°C until analysis. […] Fluorescence detection of lucifer yellow (excitation at 430 nm, and emission at 535 nm) was carried out with Infinite 200 PRO NanoQuant (Tecan, Zurich, Switzerland). […] All transport assays were performed in triplicate.
The calculation for apparent permeability coefficient, Papp, was performed as described before. Papp=dQr/dt/A×C0 where dQr/dt is the cumulative amount in the receiver side vs time in μM/s
A is the area of the cell monolayer
C0 is the initial concentration of the dosing solution (μM).
And, Efflux ratio=Papp(B−to−A)/Papp(A−to−B)

[4] = target: T1, BCRP; set-up: host or cells: MCF-7 cells overexpressing BCRP; details: previous study; cited from earlier work

- intracellular accumulation of BPZ in hCMEC/D3 cells [2]: did not affect
- transport by BCRP (conclusion of bidirectional transport assay) [3]: not
- Papp A→B at 2 h, 15 µM ([3]; pH 7.4): 0.71 ×10⁻⁶ cm/s
- Papp A→B at 2 h, 60 µM ([3]; pH 7.4): 20 ×10⁻⁶ cm/s
- Papp B→A at 2 h, 15 µM ([3]; pH 7.4): 0.71 ×10⁻⁶ cm/s
- Papp B→A at 2 h, 60 µM ([3]; pH 7.4): 25.5 ×10⁻⁶ cm/s
- efflux ratio at 2 h [3]: < 1.5
- efflux ratio at 2 h, 15 µM ([3]; pH 7.4, Efflux ratio (ER), hCMEC/D3 without inhibitor Ko143, 15 μM): 1.06
- efflux ratio at 2 h, 60 µM ([3]; pH 7.4, Efflux ratio (ER), hCMEC/D3 without inhibitor Ko143, 60 μM): 1.17
- Papp A→B at 2 h, 15 µM ([3]; pH 7.4, with Ko143 1 μM): 12.3 ×10⁻⁶ cm/s
- Papp A→B at 2 h, 60 µM ([3]; pH 7.4, with Ko143 1 μM): 159 ×10⁻⁶ cm/s
- Papp B→A at 2 h, 15 µM ([3]; pH 7.4, with Ko143 1 μM): 14.2 ×10⁻⁶ cm/s
- Papp B→A at 2 h, 60 µM ([3]; pH 7.4, with Ko143 1 μM): 190 ×10⁻⁶ cm/s
- efflux ratio at 2 h, 15 µM ([3]; pH 7.4, with Ko143 1 µM, Efflux ratio (ER), hCMEC/D3 with inhibitor Ko143, 15 μM, 1 μM Ko143): 1.16
- efflux ratio at 2 h, 60 µM ([3]; pH 7.4, with Ko143 1 µM, Efflux ratio (ER), hCMEC/D3 with inhibitor Ko143, 60 μM, 1 μM Ko143): 1.13
Structure (SMILES): CC1(C)O[C@@H]2[C@@H](CO[C@@]3(COS(N)(=O)=O)OC(C)(C)O[C@@H]23)O1 [TPM, topiramate]
- Therapeutic plasma concentration range [1]: 15 to 60 µM
- stimulation of BCRP ATPase activity [4]: no significant stimulation

Structure (SMILES): O=C1c2c(O)ccc(O)c2C(=O)c2c(NCCNCCO)ccc(NCCNCCO)c21 [MXR, mitoxantrone]
- Papp A→B at 2 h, 5 μM ([3]; pH 7.4): 5.1 ×10⁻⁶ cm/s
- Papp B→A at 2 h, 5 μM ([3]; pH 7.4): 12.7 ×10⁻⁶ cm/s
- Papp A→B at 2 h, 5 μM ([3]; pH 7.4, with Ko143 1 μM): 10.2 ×10⁻⁶ cm/s
- Papp B→A at 2 h, 5 μM ([3]; pH 7.4, with Ko143 1 μM): 10.6 ×10⁻⁶ cm/s

- intracellular accumulation of BPZ in hCMEC/D3 cells [2]: did not affect
- transport by BCRP (conclusion of bidirectional transport assay) [3]: not
- Papp A→B at 2 h, 21 μM ([3]; pH 7.4): 3.37 ×10⁻⁶ cm/s
- Papp A→B at 2 h, 42 μM ([3]; pH 7.4): 3.37 ×10⁻⁶ cm/s
- Papp B→A at 2 h, 21 μM ([3]; pH 7.4): 4.27 ×10⁻⁶ cm/s
- Papp B→A at 2 h, 42 μM ([3]; pH 7.4): 4.04 ×10⁻⁶ cm/s
- efflux ratio at 2 h [3]: < 1.5
- efflux ratio at 2 h, 21 μM ([3]; pH 7.4, Efflux ratio (ER), hCMEC/D3 without inhibitor Ko143, 21 μM): 1.23
- efflux ratio at 2 h, 42 μM ([3]; pH 7.4, Efflux ratio (ER), hCMEC/D3 without inhibitor Ko143, 42 μM): 1.18
- Papp A→B at 2 h, 21 μM ([3]; pH 7.4, with Ko143 1 μM): 4.72 ×10⁻⁶ cm/s
- Papp A→B at 2 h, 42 μM ([3]; pH 7.4, with Ko143 1 μM): 3.82 ×10⁻⁶ cm/s
- Papp B→A at 2 h, 21 μM ([3]; pH 7.4, with Ko143 1 μM): 3.03 ×10⁻⁶ cm/s
- Papp B→A at 2 h, 42 μM ([3]; pH 7.4, with Ko143 1 μM): 4.27 ×10⁻⁶ cm/s
- efflux ratio at 2 h, 21 μM ([3]; pH 7.4, with Ko143 1 μM, Efflux ratio (ER), hCMEC/D3 with inhibitor Ko143, 21 μM, 1 μM Ko143): 0.98
- efflux ratio at 2 h, 42 μM ([3]; pH 7.4, with Ko143 1 μM, Efflux ratio (ER), hCMEC/D3 with inhibitor Ko143, 42 μM, 1 μM Ko143): 1.12
Structure (SMILES): NC(=O)N1c2ccccc2C=Cc2ccccc21 [CBZ, carbamazepine]
- Therapeutic plasma concentration range [1]: 15 to 45 µM
- stimulation of BCRP ATPase activity [4]: no significant stimulation
